Measured values taken from patent publication US20150105252A1, “SUBSTITUTED PYRAZOLES AS HERBICIDES” (E I DU PONT DE NEMOURS AND COMPANY, priority 2013, published 2015).

How the values were obtained:
Assay in all cases: Test C postemergence
chickweed = assay type: in vivo, Stellaria media; settings: for Plant response rating (scale of 0 to 100 where 0 is no effect and 100 is complete control), Chickweed: Postemergence, 31 g ai/ha, visually evaluated after 13 to 15 days; for Chickweed plant response rating / Plant response rating, Chickweed: postemergence; for Chickweed plant response rating: 62 g ai/ha, scale 0 to 100
Text: (§1) Seeds of plant species selected from blackgrass (Alopecurus myosuroides), ryegrass, Italian (Italian ryegrass, Lolium multiflorum), wheat (winter wheat, Triticum aestivum), galium (catchweed bedstraw, Galium aparine), corn (Zea mays), crabgrass, large (large crabgrass, Digitaria sanguinalis), foxtail, giant (giant foxtail, Setaria faberii), johnsongrass (Sorghum halepense), lambsquarters (Chenopodium album), morningglory (Ipomoea coccinea), nutsedge, yellow (yellow nutsedge, Cyperus esculentus), pigweed (redroot pigweed, Amaranthus retroflexus), ragweed (common ragweed, Ambrosia elation), soybean (Glycine max), barnyardgrass (Echinochloa crus-galli), oilseed rape (Brassica napus), waterhemp (common waterhemp, Amaranthus rudis), oat, wild (wild oat, Avena fatua), kochia (Kochia scoparia), Surinam grass (Brachiaria decumbens), foxtail, green (green foxtail, Setaria viridis), goosegrass (Eleusine indica), bromegrass, downy (downy bromegrass, Bromus tectorum), nightshade (eastern black nightshade, Solanum ptycanthum), cocklebur (common cocklebur, Xanthium strumarium), cupgrass, woolly (woolly cupgrass, Eriochloa villosa), bermudagrass (Cynodon dactylon), sunflower, (common oilseed sunflower, Helianthus annuus), Russian thistle (Salsola kali), and velvetleaf (Abutilon theophrasti) were planted into a blend of loam soil and sand and treated preemergence with test chemicals formulated in a non-phytotoxic solvent mixture which included a surfactant.
(§2) At the same time, plants selected from these crop and weed species and also chickweed (common chickweed, Stellaria media), canarygrass (littleseed canarygrass, Phalaris minor), and deadnettle (henbit deadnettle, Lamium amplexicaule), were planted in pots containing Redi-Earth® planting medium (Scotts Company, 14111 Scottslawn Road, Marysville, Ohio 43041) comprising spaghnum peat moss, vermiculite, wetting agent and starter nutrients and treated with postemergence applications of test chemicals formulated in the same manner. Plants ranged in height from 2 to 18 cm (1- to 4-leaf stage) for postemergence treatments. Treated plants and controls were maintained in a greenhouse for 13 to 15 days, after which time all species were compared to controls and visually evaluated. Plant response ratings, summarized in Table C, are based on a scale of 0 to 100 where 0 is no effect and 100 is complete control. A dash (-) response means no test result.

waterhemp = assay type: in vivo, Amaranthus rudis; settings: postemergence, 250 g ai/ha; scale 0 to 100 (0 no effect, 100 complete control)
Outline: (§3)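 Seeds sown in loam–sand blend and treated preemergence with test chemicals in non-phytotoxic solvent with surfactant; postemergence plants in peat-based medium, treated at 2–18 cm (1- to 4-leaf stage). Greenhouse 13 to 15 days, then visual rating versus controls, 0 (no effect) to 100 (complete control).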

pigweed = assay type: in vivo, Amaranthus retroflexus; settings: postemergence; for Pigweed plant response rating: 62 g ai/ha, scale 0 to 100
Text: as §1, §2

crabgrass, large = assay type: in vivo, Digitaria sanguinalis; settings: for Plant response rating (scale of 0 to 100 where 0 is no effect and 100 is complete control), Crabgrass, Large: Postemergence, 31 g ai/ha, visually evaluated after 13 to 15 days; for Crabgrass, Large plant response rating / Plant response rating, Crabgrass, Large: postemergence; for Crabgrass, Large plant response rating: 62 g ai/ha, scale 0 to 100
Text: as §1, §2

galium = assay type: in vivo, Galium aparine; settings: for Plant response rating (scale of 0 to 100 where 0 is no effect and 100 is complete control), Galium: Postemergence, 31 g ai/ha, visually evaluated after 13 to 15 days; for Galium plant response rating / Plant response rating, Galium: postemergence; for Galium plant response rating: 62 g ai/ha, scale 0 to 100
Outline: as §3

kochia = assay type: in vivo, Kochia scoparia; settings: for Plant response rating (scale of 0 to 100 where 0 is no effect and 100 is complete control), Kochia: Postemergence, 31 g ai/ha, visually evaluated after 13 to 15 days; for Kochia plant response rating / Plant response rating, Kochia: postemergence; for Kochia plant response rating: 62 g ai/ha, scale 0 to 100
Outline: as §3

oat, wild = assay type: in vivo, Avena fatua; settings: for Plant response rating (scale of 0 to 100 where 0 is no effect and 100 is complete control), Oat, Wild: Postemergence, 31 g ai/ha, visually evaluated after 13 to 15 days; for Oat, Wild plant response rating / Plant response rating, Oat, Wild: postemergence; for Oat, Wild plant response rating: 62 g ai/ha, scale 0 to 100
Text: as §1, §2

lambsquarters = assay type: in vivo, Chenopodium album; settings: for Plant response rating (scale of 0 to 100 where 0 is no effect and 100 is complete control), Lambsquarters: Postemergence, 31 g ai/ha, visually evaluated after 13 to 15 days; for Lambsquarters plant response rating / Plant response rating, Lambsquarters: postemergence; for Lambsquarters plant response rating: 62 g ai/ha, scale 0 to 100
Text: as §1, §2

velvetleaf = assay type: in vivo, Abutilon theophrasti; settings: postemergence; for Plant response rating, Velvetleaf: 250 g ai/ha, scale 0 to 100 (0 no effect, 100 complete control)
Text: as §1, §2

blackgrass = assay type: in vivo, Alopecurus myosuroides; settings: for Plant response rating (scale of 0 to 100 where 0 is no effect and 100 is complete control), Blackgrass: Postemergence, 31 g ai/ha, visually evaluated after 13 to 15 days; for Blackgrass plant response rating / Plant response rating, Blackgrass: postemergence; for Blackgrass plant response rating: 62 g ai/ha, scale 0 to 100
Outline: as §3

barnyardgrass = assay type: in vivo, Echinochloa crus-galli; settings: for Plant response rating (scale of 0 to 100 where 0 is no effect and 100 is complete control), Barnyardgrass: Postemergence, 31 g ai/ha, visually evaluated after 13 to 15 days; for Barnyardgrass plant response rating / Plant response rating, Barnyardgrass: postemergence; for Barnyardgrass plant response rating: 62 g ai/ha, scale 0 to 100
Outline: as §3

morningglory = assay type: in vivo, Ipomoea coccinea; settings: for Plant response rating (scale of 0 to 100 where 0 is no effect and 100 is complete control), Morningglory: Postemergence, 31 g ai/ha, visually evaluated after 13 to 15 days; for Morningglory plant response rating / Plant response rating, Morningglory: postemergence; for Morningglory plant response rating: 62 g ai/ha, scale 0 to 100
Text: as §1, §2

wheat = assay type: in vivo, Triticum aestivum; settings: postemergence; for Plant response rating, Wheat: 250 g ai/ha, scale 0 to 100 (0 no effect, 100 complete control)
Text: as §1, §2

[1] = 250 g ai/ha, scale 0 to 100 (0 no effect, 100 complete control)
[2] = 125 g ai/ha, scale 0 to 100, 0 no effect, 100 complete control

## CCNC(=O)c1cc(CC)n(Cc2ccnc(C(F)(F)F)c2)n1 [Compound 196]
chickweed
  Plant response rating (scale of 0 to 100 where 0 is no effect and 100 is complete control), Chickweed: 50
  Chickweed plant response rating: 60
chickweed; [1]
  Plant response rating, Chickweed: 80
chickweed; [2]
  Plant response rating, Chickweed: 80
waterhemp
  Plant response rating, Waterhemp: 70
pigweed
  Pigweed plant response rating: 60
pigweed; [1]
  Plant response rating, Pigweed: 70
pigweed; [2]
  Plant response rating, Pigweed: 70
crabgrass, large
  Plant response rating (scale of 0 to 100 where 0 is no effect and 100 is complete control), Crabgrass, Large: 5
  Crabgrass, Large plant response rating: 5
crabgrass, large; [1]
  Plant response rating, Crabgrass, Large: 25
crabgrass, large; [2]
  Plant response rating, Crabgrass, Large: 10
galium
  Plant response rating (scale of 0 to 100 where 0 is no effect and 100 is complete control), Galium: 40
  Galium plant response rating: 55
galium; [1]
  Plant response rating, Galium: 90
galium; [2]
  Plant response rating, Galium: 80
kochia
  Plant response rating (scale of 0 to 100 where 0 is no effect and 100 is complete control), Kochia: 80
  Kochia plant response rating: 85
kochia; [1]
  Plant response rating, Kochia: 90
kochia; [2]
  Plant response rating, Kochia: 90
oat, wild
  Plant response rating (scale of 0 to 100 where 0 is no effect and 100 is complete control), Oat, Wild: 5
  Oat, Wild plant response rating: 5
oat, wild; [1]
  Plant response rating, Oat, Wild: 15
oat, wild; [2]
  Plant response rating, Oat, Wild: 10
lambsquarters
  Plant response rating (scale of 0 to 100 where 0 is no effect and 100 is complete control), Lambsquarters: 60
  Lambsquarters plant response rating: 65
lambsquarters; [1]
  Plant response rating, Lambsquarters: 75
lambsquarters; [2]
  Plant response rating, Lambsquarters: 75
velvetleaf
  Plant response rating, Velvetleaf: 50
blackgrass
  Plant response rating (scale of 0 to 100 where 0 is no effect and 100 is complete control), Blackgrass: 20
  Blackgrass plant response rating: 15
blackgrass; [1]
  Plant response rating, Blackgrass: 15
blackgrass; [2]
  Plant response rating, Blackgrass: 5
barnyardgrass
  Plant response rating (scale of 0 to 100 where 0 is no effect and 100 is complete control), Barnyardgrass: 5
  Barnyardgrass plant response rating: 5
barnyardgrass; [1]
  Plant response rating, Barnyardgrass: 35
barnyardgrass; [2]
  Plant response rating, Barnyardgrass: 20
morningglory
  Plant response rating (scale of 0 to 100 where 0 is no effect and 100 is complete control), Morningglory: 40
  Morningglory plant response rating: 80
morningglory; [1]
  Plant response rating, Morningglory: 75
morningglory; [2]
  Plant response rating, Morningglory: 55
wheat
  Plant response rating, Wheat: 5

## Cc1cc(C(=O)NC(C)C)nn1Cc1ccnc(C(F)(F)F)c1 [Compound 197]
chickweed
  Plant response rating (scale of 0 to 100 where 0 is no effect and 100 is complete control), Chickweed: 50
  Chickweed plant response rating: 55
chickweed; [1]
  Plant response rating, Chickweed: 80
chickweed; [2]
  Plant response rating, Chickweed: 60
waterhemp
  Plant response rating, Waterhemp: 55
pigweed
  Pigweed plant response rating: 60
pigweed; [1]
  Plant response rating, Pigweed: 70
pigweed; [2]
  Plant response rating, Pigweed: 65
crabgrass, large
  Plant response rating (scale of 0 to 100 where 0 is no effect and 100 is complete control), Crabgrass, Large: 5
  Crabgrass, Large plant response rating: 5
crabgrass, large; [1]
  Plant response rating, Crabgrass, Large: 15
crabgrass, large; [2]
  Plant response rating, Crabgrass, Large: 10
galium
  Plant response rating (scale of 0 to 100 where 0 is no effect and 100 is complete control), Galium: 40
  Galium plant response rating: 50
galium; [1]
  Plant response rating, Galium: 85
galium; [2]
  Plant response rating, Galium: 50
kochia
  Plant response rating (scale of 0 to 100 where 0 is no effect and 100 is complete control), Kochia: 40
  Kochia plant response rating: 60
kochia; [1]
  Plant response rating, Kochia: 90
kochia; [2]
  Plant response rating, Kochia: 85
oat, wild
  Plant response rating (scale of 0 to 100 where 0 is no effect and 100 is complete control), Oat, Wild: 0
  Oat, Wild plant response rating: 0
oat, wild; [1]
  Plant response rating, Oat, Wild: 5
oat, wild; [2]
  Plant response rating, Oat, Wild: 5
lambsquarters
  Plant response rating (scale of 0 to 100 where 0 is no effect and 100 is complete control), Lambsquarters: 55
  Lambsquarters plant response rating: 55
lambsquarters; [1]
  Plant response rating, Lambsquarters: 85
lambsquarters; [2]
  Plant response rating, Lambsquarters: 60
velvetleaf
  Plant response rating, Velvetleaf: 40
velvetleaf; scale 0 to 100
  Velvetleaf plant response rating: 40
blackgrass
  Plant response rating (scale of 0 to 100 where 0 is no effect and 100 is complete control), Blackgrass: 0
  Blackgrass plant response rating: 0
blackgrass; [1]
  Plant response rating, Blackgrass: 15
blackgrass; [2]
  Plant response rating, Blackgrass: 5
barnyardgrass
  Plant response rating (scale of 0 to 100 where 0 is no effect and 100 is complete control), Barnyardgrass: 0
  Barnyardgrass plant response rating: 0
barnyardgrass; [1]
  Plant response rating, Barnyardgrass: 10
barnyardgrass; [2]
  Plant response rating, Barnyardgrass: 5
morningglory
  Plant response rating (scale of 0 to 100 where 0 is no effect and 100 is complete control), Morningglory: 75
  Morningglory plant response rating: 75
morningglory; [1]
  Plant response rating, Morningglory: 98
morningglory; [2]
  Plant response rating, Morningglory: 65
wheat
  Plant response rating, Wheat: 5
wheat; scale 0 to 100
  Wheat plant response rating: 5
